Reference: patent US20180103845A1, “METHOD FOR ASSESSING IRRITANCY TO BIOLOGICAL SAMPLES” (OLYMPUS CORPORATION, priority 2016, published 2018)

Tested on: human skin models based on SkinEthic RHE
Experiment: Skin irritation test on three-dimensional human skin model (TG439 exposure, Nuclear-ID live/dead nuclear fluorescence, 3D confocal imaging)
Method: As such a biological sample 1, a three-dimensional human skin model approved in the OECD Testing Guidelines (TG) 439 (In Vitro Skin Irritation: Reconstructed Human Epidermis Test Method), such as SkinEthic RHE (manufactured by SkinEthic, France) having a thickness of about 100 μm, is favorably used. […] For irritancy assessment, dermal tissue may be contained in addition to the epidermis.
The chemical treatment step S1 is carried out in accordance with TG439. […]
Next, in the fluorescence labeling step S2, the nuclei of the cells in the biological tissues are fluorescence-labeled with a predetermined fluorescent marker. For fluorescence labeling, for example, a first fluorescent dye that specifically labels the nuclei of living cells, and a second fluorescent dye that emits fluorescence of a wavelength different from that of the first fluorescent dye and that specifically labels the nuclei of dead cells are used. […]
Next, in the image acquisition step S3, fluorescence images of the nuclei of living cells and the nuclei of dead cells at different depth positions in the biological sample are acquired using a fluorescence microscope.
FIGS. 5 and 6 show fluorescence images of biological samples exposed to 1% and 10% Triton-X, respectively. […] FIGS. 9 and 10 show fluorescence images of biological samples exposed to PBS and a 5% SDS solution, as controls. […]

| Compound | structures such as the nuclei of dead cells (human skin model exposed to 5% SDS solution, positive control (FIG. 10)) | three-dimensional structures of cells, such as the nuclei (human skin model exposed to 1% and 10% chemical (FIGS. 5 to 8), 42 min exposure, 42 h culture per TG439) |
| --- | --- | --- |
| CCCCCCCCCCCCOS(=O)(=O)[O-].[Na+] [SDS, sodium dodecyl sulphate] | disrupted |  |
| Triton-X |  | preserved |
